From paper PMC7522794, “Synthesis and evaluation of novel 2,4-disubstituted arylthiazoles against T. brucei” (RSC Medicinal Chemistry, 2019)

Columns and labels:
[1] = Cytotoxic activity against rat skeletal myoblast L6 cells (Alamar Blue); format: cell-based; conditions: rat, L6 cells (rat skeletal muscle line); cytotoxicity, 6 days incubation + 8 hours Alamar Blue
Procedure: (§1) Cytotoxicity against mammalian cells was assessed using microtitre plates. Briefly, L6 cells (a rat skeletal muscle line) were seeded at 1 × 10^4 mL^–1 in 200 μL of growth medium containing 7 different compound concentrations in a range previously established to encompass both the IC50 and IC90 values. The plates were incubated for 6 days at 37 °C and 20 μL Alamar Blue (Biosource UK Ltd) was then added to each well. After an additional 8 hours incubation, the fluorescence was determined using a FLUOstar Omega fluorescent plate reader (BMG Labtech). Inhibition of growth was calculated by comparison with control values and IC50 and IC90 values were determined in triplicate using linear regression analysis.

[2] = tested on: L6 cells; experiment: as above; format: cell-based; conditions: ratio of IC50 values obtained with L6 cells and T. brucei
Procedure: as §1

[3] = tested on: Bloodstream form T. brucei (strain 427); experiment: Trypanocidal activity against bloodstream form T. brucei (Alamar Blue growth inhibition); format: cell-based, Trypanosoma brucei; conditions: Trypanosoma brucei, 48 hours + overnight Alamar Blue; for IC50: concentration that inhibits growth by 50%; for IC90: concentration that inhibits growth by 90%
Procedure: Bloodstream form T. brucei (strain 427) were cultured at 37 °C in modified Iscove's medium. Trypanocidal activity was assessed by growing parasites in microtiter plates in the presence of various drug concentrations. […] The plates were incubated for 48 hours at 37 °C and 20 μL Alamar Blue was then added to each well. After an additional overnight incubation, the fluorescence was determined. Inhibition of growth was calculated by comparison with control values and IC50 and IC90 values were determined in triplicate using linear regression analysis.

Br.CN(C)CCc1nc(-c2ccc(C34CC5CC(CC(C5)C3)C4)cc2)cs1 [Compound 3d, 2-{4-[4-(1-Tricyclo[3.3.1.1^3,7]decyl)phenyl]thiazol-2-yl}-N,N-dimethylethan-1-amine dihydrochloride]
IC50 [1]: 3.19 ± 0.25 µM | S.I. (selectivity index) [2]: 2.3 | melting point: 200 to 202 °C

NCCc1csc(-c2ccc(C34CC5CC(CC(C5)C3)C4)cc2)n1 [Compound 2a, 2-{2-[4-(1-Tricyclo[3.3.1.1^3,7]decyl)phenyl]thiazol-4-yl}ethan-1-amine]
IC50 [3]: 800 ± 30 nM | IC90 [3]: 1170 ± 10 nM | IC50 [1]: 4.08 ± 0.15 µM | S.I. (selectivity index) [2]: 5.1

CN(C)CCc1csc(-c2ccc(F)c(C34CC5CC(CC(C5)C3)C4)c2)n1 [Compound 1c, 2-{2-[3-(1-Tricyclo[3.3.1.1^3,7]decyl)-4-fluorophenyl]thiazol-4-yl}-N,N-dimethylethyl-1-amine]
IC50 [3]: 790 ± 20 nM | IC90 [3]: 1030 ± 10 nM | IC50 [1]: 1.53 ± 0.09 µM | S.I. (selectivity index) [2]: 1.9

CNCCc1csc(-c2ccc(C34CC5CC(CC(C5)C3)C4)cc2)n1 [Compound 2b, 2-{2-[4-(1-Tricyclo[3.3.1.1^3,7]decyl)phenyl]thiazol-4-yl}-N-methylethan-1-amine]
IC50 [3]: 590 ± 20 nM | IC90 [3]: 790 ± 10 nM | IC50 [1]: 0.96 ± 0.26 µM | S.I. (selectivity index) [2]: 1.6

Br.NCCc1nc(-c2ccc(C34CC5CC(CC(C5)C3)C4)cc2)cs1 [Compound 3c, 2-{4-[4-(1-Tricyclo[3.3.1.1^3,7]decyl)phenyl]thiazol-2-yl}ethanamine hydrobromide]
IC50 [3]: 2740 ± 290 nM | IC90 [3]: 4400 ± 70 nM | IC50 [1]: 4.16 ± 0.24 µM | S.I. (selectivity index) [2]: 1.5 | melting point: 261 to 263 °C

NCCc1csc(-c2ccc(F)c(C34CC5CC(CC(C5)C3)C4)c2)n1 [Compound 1a, 2-{2-[3-(1-Tricyclo[3.3.1.1^3,7]decyl)-4-fluorophenyl]thiazol-4-yl}ethan-1-amine]
IC50 [3]: 420 ± 10 nM | IC90 [3]: 560 ± 10 nM | IC50 [1]: 1.05 ± 0.23 µM | S.I. (selectivity index) [2]: 2.5

Br.Nc1nc(-c2ccc(C34CC5CC(CC(C5)C3)C4)cc2)cs1 [Compound 3a, 4-[4-(1-Tricyclo[3.3.1.1^3,7]decyl)phenyl]thiazol-2-amine hydrobromide]
IC50 [3]: 22500 ± 600 nM | IC90 [3]: 30500 ± 4500 nM | IC50 [1]: 13.8 ± 1.6 µM | S.I. (selectivity index) [2]: <1 | melting point: 345 °C (dec.)
